# Tests used:
# [1] = Urine levels of absorbed (bioavailable) Pu-erh tea components after a single Pu-erh tea intake, UPLC-QTOFMS and GC-TOFMS profiling; type: in vivo, human; conditions: for FC (fold change): absorbed Pu-erh tea metabolite, human urine
# Experimental: (§1) Participants received a dose equivalent to 5 cups of commercially prepared tea. Twenty healthy men (n=10) and women (n=10) whose mean age was 25±2 years (range 22-32) were enrolled in this study, and written consent was obtained from each participant.
# (§2) Volunteers were provided with identical standard meals three times per day during the experiment (e.g., breakfast: milk and bread; lunch: beef and vegetables; dinner: pork and cabbage). […] Urine samples were stored at −80° C. before analysis.
# (§3) The tea infusion used in this study and the collected urine samples were centrifuged at 13,000 rpm for 10 min at 4° C., and the resulting supernatants were immediately stored at −80° C. pending UPLC-QTOFMS analysis. Ultrapure water (500 μL) was added to the tea or urine sample (500 μL) and vortexed for 1 min. The sample was then filtered through a syringe filter (0.22 μm) for UPLC-QTOFMS analysis.; incorporated by reference herein in its entirety.
# (§4) The tea infusion (100 μL) described in Example 2 and urine samples (100 μL) were spiked with two internal standard solutions (10 μL-2-chlorophenylalanine in water, 0.3 mg/ml; 10 μL heptadecanoic acid in methanol, 1 mg/mL), and vortexed for 10 seconds. The mixed solution was extracted with 300 μL of methanol:chloroform (v/v 3:1) and vortexed for 30 seconds. After storing for 10 min at −20° C., the samples were centrifuged at 10,000 rpm for 10 min. An aliquot of the 300 μL supernatant was transferred to a glass sampling vial to vacuum dry at room temperature. The residue was derivatized using a two-step procedure. First, 80 μL methoxyamine (15 mg/mL in pyridine,) was added to the vial and kept at 30° C. for 90 min followed by 80 μL BSTFA (1% TMCS) at 70° C. for 60 min. See protocols set forth in Ni et al., FEBS Lett. 581: 707-711 (2007).; incorporated by reference herein in its entirety.
# (§5) UPLC: Tea and urine metabolite profiling were performed using a Waters ACQUITY UPLC system equipped with a binary solvent delivery manager and a sample manager (Waters Corporation, Milford, Mass., USA), coupled to a Micromass Q-TOF Premier mass spectrometry equipped with an electrospray interface (Waters Corporation, Milford, M A, USA). Chromatographic separations were performed on a 2.1×100 mm 1.7 μm ACQUITY BEH C18 chromatography column. The column was maintained at 45° C. and eluted with a 1-99% acetonitrile (0.1% (v/v) formic acid)-aqueous formic acid (0.1% (v/v) formic acid) gradient over 10 min at a flow rate of 0.40 mL/min. A 5 μL aliquot sample was injected onto the column.
# (§6) Mass Spectrometry: The mass accuracy analysis and detailed MS parameters were optimized according to our prior studies, which is incorporated herein in its entirety. During metabolite profiling experiments, centroid data was acquired for each sample from 50 to 1000 Da with a 0.10 sec scan time and a 0.01 sec interscan delay over a 10 min analysis time. A metabonomics MS System Test Mixture including acetaminophen, tolbutamide, 3′-azido-3′-deoxythymidine, reserpine, verapamil and coumarin was used as chromatographic reference and mass accuracy quality control. This test mixture was injected every ten injections. The mass spectrometer was operated in positive ion mode. The desolvation temperature was set to 400° C. at a flow rate of 700 L/hr and source temperature of 100° C. The capillary and cone voltages were set to 3500 and 45 V, respectively. The data was collected between 50-1000 m/z with alternating collision energy, at 5 eV for precursor ion information generation and a collision profile from 10-40 eV for fragment ion information. The Q-TOF Premier™ was operated in v mode with 10,000 mass resolving power. Data were centroided during acquisition using independent reference lock-mass ions via the LockSpray™ interface to ensure mass accuracy and reproducibility. Leucine-enkephalin was used as the reference compound at a concentration of 50 pg/μL and an infusion flow rate of 0.05 mL/min.
# [2] = tested on: endogenous urinary metabolite profiles; assay: Altered endogenous urinary metabolites after a single Pu-erh tea intake, UPLC-QTOFMS and GC-TOFMS profiling; type: in vivo; conditions: human urine
# Experimental: as §1, §2, §3, §4, §5, §6
# [3] = tested on: human metabolite endpoints; assay: Urinary metabolomic response during 6-week study (24 h, 2 week daily Pu-erh tea intake, 2 week wash-out) vs pre-dose, OPLS-DA and S-plot; type: in vivo; conditions: 2 week of Pu-erh tea daily intake vs pre-dose, human urine
# Experimental: as §2
# [4] = Urine levels of biotransformed Pu-erh tea metabolites (produced in vivo) after a single Pu-erh tea intake, UPLC-QTOFMS and GC-TOFMS profiling; set-up: species or system human
# Experimental: Approximately 1 kg of 5-year-old Pu-erh tea was mixed to produce a homogeneous sample, and then ground into a fine powder and filtered through a 20 mesh screen. The Pu-erh tea was prepared by infusing 10 g powder in 200 mL boiling water for 10 min, followed by straining. Participants received a dose equivalent to 5 cups of commercially prepared tea. Twenty healthy men (n=10) and women (n=10) whose mean age was 25±2 years (range 22-32) were enrolled in this study, and written consent was obtained from each participant.
# Volunteers were provided with identical standard meals three times per day during the experiment (e.g., breakfast: milk and bread; lunch: beef and vegetables; dinner: pork and cabbage). Urine samples of 12 healthy men (n=6) and women (n=6) selected from the 20 participants were collected just before breakfast including the 200 mL Pu-erh tea and at 1 h, 3 h, 6 h, 9 h, 12 h, and 24 h thereafter. Spot urine samples of all 20 participants were collected daily between 11:00 and 11:30 a.m. during a 6-week period that included a 2-week baseline phase, a 2-week daily Pu-erh tea ingestion phase, and a 2-week post-dosing phase. […] Urine samples were stored at −80° C. before analysis.
# as §3, §4, §5
# Mass Spectrometry: The mass accuracy analysis and detailed MS parameters were optimized according to our prior studies, which is incorporated herein in its entirety. During metabolite profiling experiments, centroid data was acquired for each sample from 50 to 1000 Da with a 0.10 sec scan time and a 0.01 sec interscan delay over a 10 min analysis time. A metabonomics MS System Test Mixture including acetaminophen, tolbutamide, 3′-azido-3′-deoxythymidine, reserpine, verapamil and coumarin was used as chromatographic reference and mass accuracy quality control. This test mixture was injected every ten injections. The mass spectrometer was operated in positive ion mode. […]
# [5] = Pearson correlation of absorbed, biotransformed plant metabolites and altered endogenous metabolites in urine; type: in vivo, human; conditions: ρ≧0.7 or ρ≦−0.7, urine, FIG. 13
# Experimental: Similarly, in order to study the relationship of dynamic response of metabolites along with the time course, mean value of each metabolite was calculated at each time point (0 h→1 h→2 h→3 h→6 h→12 h→24 h). A new metabolite vector with 7 mean values calculated at 7 different time points, representing the average response, was constructed and the Pearson correlation coefficients were calculated similarly with the pair-wise comparison of metabolites.
# [6] = 1 h after Pu-erh tea intake vs pre-dose
# [7] = 3 h after Pu-erh tea intake vs pre-dose
# [8] = 6 h after Pu-erh tea intake vs pre-dose
# [9] = 9 h after Pu-erh tea intake vs pre-dose
# [10] = 12 h after Pu-erh tea intake vs pre-dose
# [11] = 24 h after Pu-erh tea intake vs pre-dose
Compound,FC (fold change) ([1]; 1 h post-dose vs pre-dose),FC (fold change) ([1]; 3 h post-dose vs pre-dose),FC (fold change) ([1]; 6 h post-dose vs pre-dose),FC (fold change) ([1]; 9 h post-dose vs pre-dose),FC (fold change) ([1]; 12 h post-dose vs pre-dose),FC (fold change) ([1]; 24 h post-dose vs pre-dose),further results
O=C(O)CCC(=O)O [Succinate],1.15,0.90,0.74,0.57,0.84,0.93,–
COc1ccccc1O [2-Methoxyphenol],–,–,–,–,–,–,"FC (fold change) [2, 6]: 0.48; FC (fold change) [2, 7]: 0.31; FC (fold change) [2, 8]: 0.31; FC (fold change) [2, 9]: 0.41; FC (fold change) [2, 10]: 0.59; FC (fold change) [2, 11]: 0.61"
O=C(O)c1cccnc1 [Nicotinic acid],14.31,62.95,78.98,63.95,49.02,27.31,–
Cn1c(=O)c2[nH]cnc2n(C)c1=O [Theophylline],11.62,42.69,54.55,45.99,38.67,19.22,–
Cn1cnc2c1c(=O)[nH]c(=O)n2C [Theobromine],4.04,6.76,7.75,5.42,4.43,2.67,–
COc1ccc(CC(=O)O)cc1 [4-methoxyphenylacetic acid],–,–,–,–,–,–,change of urinary excretion / concentration [3]: increased
NC(C(=O)O)C(=O)O [Aminomalonic acid],–,–,–,–,–,–,"FC (fold change) [2, 6]: 1.90; FC (fold change) [2, 7]: 3.09; FC (fold change) [2, 8]: 3.09; FC (fold change) [2, 9]: 0.45; FC (fold change) [2, 10]: 0.57; FC (fold change) [2, 11]: 0.35"
CCN [Ethylamine],–,–,–,–,–,–,"FC (fold change) [4, 7]: 3.10; FC (fold change) [4, 8]: 3.87; FC (fold change) [4, 9]: 2.65; FC (fold change) [4, 10]: 3.09; FC (fold change) [4, 11]: 1.58; FC (fold change) ([4]; l h after Pu-erh tea intake vs pre-dose): 1.73"
O=C(O)CC(O)(CC(=O)O)C(=O)O [Citric acid],1.42,1.76,1.59,1.20,1.42,1.17,–
NCC(=O)O [Glycine],1.28,1.67,2.32,1.53,1.77,1.04,–
NCCCC(=O)O [4-Aminobutanoic acid],3.95,5.14,24.12,39.08,100.29,49.03,"FC (fold change) [2, 6]: 3.95; FC (fold change) [2, 7]: 5.14; FC (fold change) [2, 8]: 24.12; FC (fold change) [2, 9]: 39.08; FC (fold change) [2, 10]: 100.29; FC (fold change) [2, 11]: 49.03"
3-chlorotyrosine-2-aminobenzoic acid,–,–,–,–,–,–,change of urinary excretion / concentration [3]: decreased
Oc1ccccc1 [Phenol],–,–,–,–,–,–,"FC (fold change) [2, 6]: 1.04; FC (fold change) [2, 7]: 1.22; FC (fold change) [2, 8]: 1.43; FC (fold change) [2, 9]: 1.14; FC (fold change) [2, 10]: 1.32; FC (fold change) [2, 11]: 2.22"
O[C@H]1[C@H](O)[C@@H](O)[C@H](O)[C@@H](O)[C@H]1O [inositol],–,–,–,–,–,–,change of urinary excretion / concentration [3]: increased
"Oc1ccc2[nH]c(O)cc2c1 [2,5-dihydroxy-1H-indole]",–,–,–,–,–,–,change of urinary excretion / concentration [3]: decreased
"O=C(O)c1cc(O)cc(O)c1 [3,5-hydroxy benzoic acid]",–,–,–,0.42,0.47,0.20,–
COc1cc(CC(=O)O)ccc1O [4-Hydroxy-3-methoxyphenylacetic acid],–,–,–,–,–,–,"FC (fold change) [2, 6]: 0.39; FC (fold change) [2, 7]: 0.11; FC (fold change) [2, 8]: 0.27; FC (fold change) [2, 9]: 0.55; FC (fold change) [2, 10]: 0.85; FC (fold change) [2, 11]: 1.12"
CC(C)[C@H](N)C(=O)O [Valine],–,–,–,–,–,–,"FC (fold change) [2, 6]: 2.58; FC (fold change) [2, 7]: 1.25; FC (fold change) [2, 8]: 2.16; FC (fold change) [2, 9]: 2.32; FC (fold change) [2, 10]: 2.76; FC (fold change) [2, 11]: 1.38"
Cc1cnc(C)c(O)c1C=O [5-Deoxypyridoxal],2.56,3.69,3.68,2.35,0.91,0.81,–
Cn1c(=O)c2c(ncn2C)n(C)c1=O [Caffeine],454.37,573.74,437.21,277.02,160.06,46.28,"time at which concentration reached maximum levels in urine ([1]; absorbed plant metabolites, after oral administration of Pu-erh tea, FIG. 10A): 1 h; time at which cleared away from urine ([1]; absorbed plant metabolites, post-dose, FIG. 10A): 9 h; correlation with its biodegradated metabolites paraxanthine, theophylline, hippuric acid and 3-hydroxyphenylacetic acid [5]: positively corrected"
N[C@@H](Cc1c[nH]c2ccc(O)cc12)C(=O)O [5-hydroxytryptophan],–,–,–,–,–,–,change of urinary excretion / concentration [3]: increased

# Source: patent US20140024132A1, “METHODS AND SYSTEMS USING INTEGRATED METABOLOMICS AND PHARMACOKINETICS FOR MULTI-COMPONENT DRUG EVALUATION” (priority 2010, published 2014)
